Measurements as given in patent publication US20190059368A1, “3,5-DIMETHOXYSTILBENE ANALOGS AND USES THEREOF” (The United States of America, as represented by the …, priority 2017, published 2019).
Values after ≈ are worked out from the molar mass of the structure shown.

Assays:
[1] = test system: Cryptococcus neoformans ATCC 90113; assay: Antimicrobial microplate assay (modified CLSI); assay type: cell-based; settings: Cr. neoformans
Experimental: All organisms were obtained from the American Type Culture Collection (ATCC; Manassas, Va., USA) and included the fungi Cryptococcus neoformans ATCC 90113 and the bacteria Staphylococcus aureus ATCC 29213, methicillin-resistant S. aureus ATCC 33591 (MRSA), and Mycobacterium intracellulare ATCC 23068. All organisms were tested using modified versions of the CLSI (formerly NCCLS) methods. For all organisms excluding My. intracellulare, optical density was used to monitor growth. Medium supplemented with 5% AlamarBlue® (BioSource International, Camarillo, Calif., USA) was utilized for growth detection of My. intracellulare. Samples (dissolved in DMSO) were serially diluted in 20% DMSO/saline and transferred (10 μl) in duplicate to 96-well flat-bottom microplates. Inocula were prepared by correcting the OD630 of microbe suspensions in Sabouraud Dextrose for Cr. neoformans, cation-adjusted Mueller-Hinton (Difco) at pH 7.3 for Staphylococcus spp., and 5% AlamarBlue® (BioSource International) in Middlebrook 7H9 broth with OADC enrichment, pH=7.0 for My. intracellulare, to afford an assay volume of 200 μl and final target inocula of: Cr. neoformans.: b 1.5×10^3, My. intracellulare: 2.0×10^6, and Staphylococcus spp.,: 5.0×10^5 CFU/ml. Final sample test concentrations were 1/100th the DMSO stock concentration. Drug controls (Ciprofloxacin (ICN Biomedicals, Ohio, USA) for bacteria and Amphotericin B (ICN Biomedicals) for fungi) were included in each assay. All organisms were read at either 530 nm using the Biotek Powerwave XS plate reader (Bio-Tek Instruments, VT) or 544ex1590em (My. intracellulare) using the Polarstar Galaxy Plate Reader (BMG LabTechnologies, Germany) before and after incubation: Staphylococcus spp. at 35° C. for 16-20 h, Cr. neoformans at 35° C. for 70-74 h, and My. intracellulare at 37° C. and 10% CO2 for 70-74 h. IC50 Values (concentrations that afford 50% inhibition relative to controls) werecalculated using XLfit 4.2 software (IDBS, Alameda, Calif.) using fit model 201.

[2] = test system: Meloidogyne incognita second-stage juveniles (J2); assay: M. incognita assay with previously hatched J2 immersed in test solutions; settings: in vivo
Experimental: (§1) Two types of assays were used to investigate activity against M. incognita: i) eggs were immersed in solutions of the test compounds, and ii) second-stage juveniles (J2) previously hatched from eggs were immersed in the test solutions. These assays were conducted with procedures similar to those in Meyer, et al. (J. Nematol. 2006, 38, 333). M. incognita race 1 (originally isolated in 2013 from a field in Maryland) was grown in the greenhouse on pepper (Capsicum annuum L.) cultivar PA-136. Egg masses were hand-picked from plant roots, rinsed three times with sterile distilled H2O, and agitated in 0.6% NaClO for 3.5 minutes to separate and surface-sterilize eggs. The eggs were rinsed in sterile distilled H2O and stored overnight at 4° C. before use in egg immersion assays. To collect J2 for direct immersion into the test compounds, sterilized eggs were placed into a hatching chamber made with a Spectra/Mesh Nylon Filter (openings 25 μm in diameter; Spectrum Laboratories Inc., Rancho Dominguez, Calif., USA) in an autoclaved dish. J2 that passed through the filter within 3 days were used immediately for assays.
The assays were conducted in 96-well polystyrene plates. For the assays with immersed eggs, each well received approximately 50 eggs in 35 μl of sterile deionized water (SDW). For assays with previously hatched J2, a suspension of approximately 50 J2 in 35 μl of SDW was placed into each well. Each well then received 165 μl of treatment or control. The solvent used to dissolve the test chemicals was a 1:1:1 mixture referred to herein as CTD: equal parts Cremophor® EL Castor Oil (BASF Corporation, Vandalia, Ill., USA), Tween 80® (Sigma-Aldrich, St. Louis, Mo., USA), and DMSO (Sigma-Aldrich). A high and low rate of each compound was tested. After addition to the nematode suspensions in the wells, the low and high rates were 83.3 and 166.7 μg/ml of each test compound, respectively, dissolved in 0.5% and 1.0% of each of the three combined solvents. Controls were CTD equivalent to the low and high rates, and SDW. Because of the large number of treatments, the test compounds were divided into two groups for the egg immersion assays. The compounds tested in the egg immersion Assay 1 were 3, 6a, 6e, 6f, 6g, 6n, 7a, 7c, 7e, 7f, 7n, 11, 12, 16, and 17. The compounds tested in the egg immersion Assay 2 were 6b, 6h, 6i, 6j, 6k, 6l , 7b, 7g, 7h, 7i, 7j, 7k, 7l, and 7m (data not shown). Test compounds used for assays with previously hatched J2 were selected based on results with the egg assays. […]
Each polystyrene culture plate was covered with a plastic adhesive sheet (Excel Scientific, Inc., Victorville, Calif., USA) and incubated at 25° C. […] In egg immersion assays, total numbers of hatched J2, and numbers of mobile and immobile J2, were counted after 2 and 7 days incubation in the test compounds. In the first assay with previously hatched J2, the numbers of mobile and immobile J2 were counted after 1 and 2 days incubation, the treatments removed and replaced with a SDW rinse, and 2 days later the mobile vs. immobile J2 counted again. […]
Data from the M. incognita assays were analyzed with the statistical package JMP 11.2.0 (SAS Institute, Cary, N.C., USA). Differences among numbers of hatched J2 in each treatment, and among percentage of mobile J2 per treatment (number mobile J2/total J2×100), were determined by the ANOVA, and means were compared using Tukey Kramer's adjustment for multiple comparisons (P<0.05). […]

[3] = test system: Meloidogyne incognita eggs; assay: M. incognita egg immersion assay (hatch and mobility of hatched J2); assay type: in vivo; settings: for effect on mobility of J2 hatched from eggs immersed in solutions (in words): in vivo
Experimental: as §1
The assays were conducted in 96-well polystyrene plates. For the assays with immersed eggs, each well received approximately 50 eggs in 35 μl of sterile deionized water (SDW). For assays with previously hatched J2, a suspension of approximately 50 J2 in 35 μl of SDW was placed into each well. Each well then received 165 μl of treatment or control. The solvent used to dissolve the test chemicals was a 1:1:1 mixture referred to herein as CTD: equal parts Cremophor® EL Castor Oil (BASF Corporation, Vandalia, Ill., USA), Tween 80® (Sigma-Aldrich, St. Louis, Mo., USA), and DMSO (Sigma-Aldrich). A high and low rate of each compound was tested. After addition to the nematode suspensions in the wells, the low and high rates were 83.3 and 166.7 μg/ml of each test compound, respectively, dissolved in 0.5% and 1.0% of each of the three combined solvents. Controls were CTD equivalent to the low and high rates, and SDW. Because of the large number of treatments, the test compounds were divided into two groups for the egg immersion assays. The compounds tested in the egg immersion Assay 1 were 3, 6a, 6e, 6f, 6g, 6n, 7a, 7c, 7e, 7f, 7n, 11, 12, 16, and 17. The compounds tested in the egg immersion Assay 2 were 6b, 6h, 6i, 6j, 6k, 6l , 7b, 7g, 7h, 7i, 7j, 7k, 7l, and 7m (data not shown). Test compounds used for assays with previously hatched J2 were selected based on results with the egg assays. The five compounds tested were 6b, 6f, 6g, 6i, and 7k, high and low rates.
Each polystyrene culture plate was covered with a plastic adhesive sheet (Excel Scientific, Inc., Victorville, Calif., USA) and incubated at 25° C. Ten wells (water controls) or five wells (all other treatments) were used per treatment in each assay. In egg immersion assays, total numbers of hatched J2, and numbers of mobile and immobile J2, were counted after 2 and 7 days incubation in the test compounds. In the first assay with previously hatched J2, the numbers of mobile and immobile J2 were counted after 1 and 2 days incubation, the treatments removed and replaced with a SDW rinse, and 2 days later the mobile vs. immobile J2 counted again. In assays with 6g and 7k, high rates and counts were made on Days 1, 2, 4, and 6, without a SDW rinse.
Data from the M. incognita assays were analyzed with the statistical package JMP 11.2.0 (SAS Institute, Cary, N.C., USA). Differences among numbers of hatched J2 in each treatment, and among percentage of mobile J2 per treatment (number mobile J2/total J2×100), were determined by the ANOVA, and means were compared using Tukey Kramer's adjustment for multiple comparisons (P<0.05). For percent mobile J2 on Day 2 in egg immersion Assays 1 and 2, and Day 4 with the five compounds in the J2 immersion assay, data were log10 (x+1)-transformed before analysis. Data presented are nontransformed means.

C. gloeosporioides = assay: Direct bioautography, antifungal; assay type: cell-based, Colletotrichum gloeosporioides; settings: Colletotrichum gloeosporioides; 2 mM; 4 μl spotted (2 μl of the positive controls); average of 2 assays; read-out: zones of inhibition
Experimental: (§2) The analogs were tested for activity against Colletotrichum acutatum SIMMONDS, C. fragariae BROOKS, and C. gloeosporioides (PENZ) PENZ & SACC. in Penz., using a direct bioautography method as previously described by Tabanca et al. (Nat. Prod. Commun. 2008, 3, 1073) and Wang, et al. (J. Agric. Food Chem. 2013, 61, 4551). Technical grade commercial fungicide standards benomyl, cyprodinil, azoxystrobin, and captan were used at 0.9-1.61 μg/μl concentrations in 95% EtOH. After sample application, each TLC plate was subsequently sprayed with a spore suspension (3.0×10^5 spores/ml) of the fungus of interest and incubated in a moisture chamber for 4 days at 26° C. with a 12 hour photoperiod. Clear zones of fungal growth inhibition on the TLC plate indicated the presence of antifungal constituents in each extract or pure compound. The test compounds were prepared at 2 mM soln. in 95% EtOH, and 4 μl were spotted on the plates (2 μl of the positive controls).

Colletotrichum acutatum = assay: Direct bioautography, antifungal; assay type: cell-based; settings: Colletotrichum acutatum; 2 mM; 4 μl spotted (2 μl of the positive controls); average of 2 assays; read-out: zones of inhibition
Experimental: as §2

C. fragariae = assay: Direct bioautography, antifungal; assay type: cell-based, Colletotrichum fragariae; settings: Colletotrichum fragariae; 2 mM; 4 μl spotted (2 μl of the positive controls); average of 2 assays; read-out: zones of inhibition
Experimental: as §2

[4] = 2 days, high rate (166.7 μg/ml)
[5] = 7 days, high rate (166.7 μg/ml)

| SMILES | effect on mobility of J2 previously hatched in water and immersed directly (in words) [2] | Percent mobile J2, assay 2 [3, 4] [%] | Percent mobile J2, assay 2 ([3]; 2 days, low rate (83.3 μg/ml)) [%] | effect on mobility of J2 hatched from eggs immersed in solutions (in words) [3] | also measured |
| --- | --- | --- | --- | --- | --- |
| C[C@@H]1[C@H](O)[C@@H](C)/C=C/C=C/C=C/C=C/C=C/C=C/C=C/[C@H](O[C@@H]2O[C@H](C)[C@@H](O)[C@H](N)[C@@H]2O)C[C@@H]2O[C@](O)(C[C@@H](O)C[C@@H](O)[C@H](O)CC[C@@H](O)C[C@@H](O)CC(=O)O[C@H]1C)C[C@H](O)[C@H]2C(=O)O [Amphotericin B, reference compound] | – | – | – | – | IC50 [1]: 0.698 µM; MIC [1]: 1.353 µM (≈ 1.25 µg/mL) |
| COc1cc(/C=C/c2ccc(Cl)c(Cl)c2)cc(OC)c1C [Compound 6i, (E)-1,3-dimethoxy-5-(3,4-dichlorostyryl)-2-methylbenzene] | only 6g and 7k had an effect on J2 mobility | 100.0 | 71.0 | some suppressive effect on mobility | Percent mobile J2, assay 2 [3, 5]: 93.2%; Percent mobile J2, assay 2 ([3]; 7 days, low rate (83.3 μg/ml)): 87.7% |
| COc1cc(/C=C/c2ccc(Br)cc2)cc(OC)c1C [Compound 6g, (E)-1,3-dimethoxy-5-(4-bromostyryl)-2-methylbenzene] | had an effect on J2 mobility | – | – | some suppressive effect on mobility | Percent mobile J2, assay 1 [3, 5]: 74.6%; Percent mobile J2, assay 1 ([3]; 7 days, low rate (83.3 μg/ml)): 89.2% |
| Cc1cc(C2CC2)nc(Nc2ccccc2)n1 [Cyprodinil, cyprodinil] | – | – | – | – | zone of inhibition at 2000 µM (C. gloeosporioides): 21.5 mm; zone of inhibition at 2000 µM (Colletotrichum acutatum): 18 mm; zone of inhibition at 2000 µM (C. fragariae): 21.5 mm |
| COc1ccc(/C=C\c2cc(OC)c(C)c(OC)c2)cc1OC [Compound 7k, (Z)-1,3-dimethoxy-5-(3,4-dimethoxystyryl)-2-methylbenzene] | had an effect on J2 mobility | 72.2 | 92.5 | some suppressive effect on mobility | – |
